Consider five compounds from patent US4333930A, “Orthoarylideneaminophenethylamines and pharmaceutical compositions” (priority 1980, dated 1982).

Where two headings read alike, the source gives them in different places.

Data set [1] in a line: Oral toxicity (mortality) in the mouse, Table 1. It counts as in vivo. The note with it: mouse, in vivo, po, Swiss mice, 14 days. On the procedure:
(§1) The mortality percentages caused by the products of the present invention administered orally to Swiss mice are shown in Table 1. The animals, free of specific pathological organism were housed in an air conditioned room from 24 to 48 hours before the start of the experiments. They were divided up into lots of 5 males and 5 females. With the animals unfed for 24 hours, the substances were administered intragastrically in a base of 6% gum arabic in a volume equal to 0.1 ml for 10 g of animal weight. The mortality was recorded at 14 days.
(§2) % of mortality as a function of the dose

Data set [2] concerns Swiss mice. Kind of data set: Oral toxicity (mortality) in the mouse, Table 1. Format: in vivo. The note with it: 14 days, 20160 min. On the procedure: as §1, §2
In data set [3] the test system is phenylbenzoquinone (PBQ). Kind of data set: Analgesic activity using phenylbenzoquinone (PBQ) as noxious agent, Table 2. Format: in vivo, male Swiss mouse. The note with it: for inhibition in vivo at 100 mg/kg / inhibition in vivo at 200 mg/kg / inhibition in vivo at 50 mg/kg: Mus musculus; for inhibition in vivo at 100 mg/kg: read-out: % of analgesic activity, 100 mg/kg, male Swiss mouse, PBQ; for inhibition in vivo at 200 mg/kg: read-out: % of analgesic activity, 200 mg/kg, male Swiss mouse, PBQ. On the procedure:
The analgesic activity was determined with the male Swiss mouse using phenylbenzoquinone (PBQ) (a variation of the method of Siegmund et al, Proc. Soc. Exp. Med., […], 95, 729-31) as the noxious agent. Twenty-eightminutes after having administered the test products in a suspension in a 6% gum base, the PBQ solution was injected. The mice were then observed ca. 5 mn. for the next five minutes.
% of analgesic activity as a function of
the dose expressed in mg/kg

Data set [4] relates to number of escapes the animal made in 5 minutes. Kind of data set: Escape test, Table 3. Format: in vivo, mouse. To be noted: 5 min, read-out: % of activity (variation of the number of escapes). An excerpt: The products of the invention were always administered orally in 6% gum base.
The notation NS signifies that the difference between the results noted for the product and the results noted for the excipient alone is not significant at the threshold 0.05 according to the Student t Test.

Data set [5] relates to number of displacements of the animal. Kind of data set: Four plates test (anxiolytic activity), Table 5. It counts as in vivo. To be noted: oral, mouse. An excerpt:
(§3) The psychotropic profile of the present invention products has been characterized with the animals in numerous tests some of whose results are shown hereinafter. The products of the invention were always administered orally in 6% gum base.
A certain number of products manifest an anxiolytic activity evidenced in the test with the four plates with the mouse (Table 5).
% of increase in the number of displacements of the
animal as a function of the dose expressed in mg/kg

In data set [6] the test system is trembling induced by oxotremorine. Kind of data set: Antagonism of trembling induced by oxotremorine, Table 7. Format: in vivo. To be noted: read-out: % of inhibition of trembling induced by oxotremorine.
Excerpt: as §3
(§4) Certain tests made it possible to show antidepressive activities. These are tests of antagonism to the effects of reserpine, oxotremorine (according to Everett G. M. et al, Science, 1956, 124, 79 and Levy J. et al, Therapie 1965, 20, 265) and to despair (according to Porsolt P. D. et al, Eur. J. Pharmacol., 1978, 47, 379-91).
% of inhibition of trembling induced by
oxotremorine as a function of the dose
(§5) administered expressed in mg/kg

Data set [7] concerns despair. The experiment in a line: Test of despair (Porsolt), Table 8. The note with it: oral. Format: in vivo.
Excerpt: as §3, §4
Test of despair: % of antagonism as a function
of the dose administered orally and expressed

Data set [8] relates to salivation induced by pilocarpine. Kind of data set: Inhibition of salivation induced by pilocarpine (anticholinergic activity), Table 9. It counts as in vivo. The note with it: oral.
Excerpt: as §3
Certain products manifest an anticholinergic activity evidenced in the inhibition test of salivation induced by pilocarpine (Table 9).
% of inhibition of salivation induced by
pilocarpine as a function of the dose
as §5

Data set [9] concerns ptosis induced by reserpine. Kind of data set: Antagonism of ptosis induced by reserpine, Table 6. To be noted: read-out: % of inhibition of ptosis induced by reserpine. Format: in vivo.
Excerpt: as §3, §4
% of inhibition of ptosis induced by reserpine
as a function of the dose administered orally

In data set [10] the test system is stereotype induced by apomorphine. Kind of data set: Antagonism of the stereotype induced by apomorphine, Table 4. It counts as in vivo. To be noted: for % of activity vis-a-vis the stereotype induced by apomorphine: oral.
Excerpt: as §3
% of activity vis-a-vis the stereotype
induced by apomorphine as a function of the
administered dose expressed in mg/kg

Where [11] appears, read: 100 mg/kg, oral, mouse, 5 minutes.
Setting [12] is: 200 mg/kg, oral, mouse, 5 minutes.
Setting [13] is: read-out: % of analgesic activity, 50 mg/kg, male Swiss mouse, PBQ.

For `CN(C)CCc1cc2c(cc1N=Cc1cccnc1)OCO2` [COR 01 170, 6-dimethylaminoethyl N-(pyridylidene-3)-1,3-benzodioxole-5-ylamine], the mortality – broadly, the percentage killed – at 336 h in data set [1] (1500 mg/kg) is 100%. Also, in data set [2] (1000 mg/kg), the “% of mortality” value was found to be 0%. Moreover, the inhibition in vivo at 100 mg/kg in [3] came to 30%. For the same compound, the inhibition in vivo at 200 mg/kg in [3] was 39%. Further, the change in vivo at 100 mg/kg in data set [4] (Mus musculus, po) was -32%; in data set [6] (po), -50%. Further, the change in vivo at 200 mg/kg was -59% in [4] (Mus musculus, po) and -78% in data set [6] (po). In addition, the “% of increase in the number of displacements of the animal” value (from here on “% of increase”) in data set [5] (25 mg/kg) is given as “+18%”; in [5] (40 mg/kg) it was “+57%”; in data set [5] (50 mg/kg), “+36%”; in data set [5] (60 mg/kg), “+69%”; in data set [5] (75 mg/kg), “+72%”. The change in vivo at 50 mg/kg in data set [6] (po) is -40%. The “Test of despair: % of antagonism” value is on record as -39% in data set [7] (50 mg/kg), -39% in data set [7] (100 mg/kg) and -33% in [7] (200 mg/kg). For the same compound, the “% of inhibition of salivation induced by pilocarpine” value (from here on “% of inhibition … by pilocarpine”) is on record as -18% in data set [8] (100 mg/kg) and -57% in data set [8] (200 mg/kg).
On to `C(=Nc1cc2c(cc1CCN1CCCC1)OCO2)c1cccnc1` [COR 01 173], for which the mortality at 336 h in [1] (500 mg/kg) is 0%; in data set [1] (1000 mg/kg), 30%. For the same compound, the change in vivo at 5 mg/kg in [4] (oral, mouse, 5 minutes) is -33%. The change in vivo at 25 mg/kg was -13% in [4] (oral, mouse, 5 minutes) and -20% in [6] (25 mg/kg, oral). Also, the change in vivo at 50 mg/kg is -29% in [4] (oral, mouse, 5 minutes); -12% in [9] (50 mg/kg, oral); -20% in [6] (50 mg/kg, oral). For the same compound, the change in vivo at 75 mg/kg in data set [4] (75 mg/kg, oral, mouse, 5 minutes) was -26%; in [9] (75 mg/kg, oral), -21%; in [6] (oral), -40%. Further, the change in vivo at 100 mg/kg in [4] (setting [11]) was -50%; in data set [9] (100 mg/kg, oral), -23%; in data set [6] (100 mg/kg, oral), -60%. The change in vivo at 150 mg/kg in data set [4] (150 mg/kg, oral, mouse, 5 minutes) is -55%; in data set [6] (150 mg/kg, oral), -70%. Besides, in [4] (setting [12]), the change in vivo at 200 mg/kg is -90%. For the same compound, the “% of increase” value in data set [5] (10 mg/kg) was “+30%”; in data set [5] (20 mg/kg) it was “+47%”; in data set [5] (50 mg/kg), “+60%”; in data set [5] (75 mg/kg), “+82%”. Moreover, the “Test of despair: % of antagonism” value was -18% in data set [7] (50 mg/kg), -41% in data set [7] (100 mg/kg) and -53% in data set [7] (200 mg/kg). Also, the “% of inhibition … by pilocarpine” value in [8] (75 mg/kg) was -39%; in data set [8] (100 mg/kg), -48%; in data set [8] (200 mg/kg), -76%.
Turning to `CN(C)CCc1ccccc1N=Cc1cccnc1` [COR 01 184], the figures for the mortality at 336 h in [1] (1500 mg/kg) and in [1] (2000 mg/kg) were 0% and 30%, respectively. Also, the inhibition in vivo at 50 mg/kg in [3] (setting [13]) was 34%. For the same compound, in data set [3], the inhibition in vivo at 100 mg/kg amounted to 44%. Moreover, in data set [3], the inhibition in vivo at 200 mg/kg amounted to 55%. The change in vivo at 5 mg/kg in data set [4] (oral, mouse, 5 minutes) is -34%. Further, in [4] (10 mg/kg, oral, mouse, 5 minutes), the change in vivo at 10 mg/kg was -26%. The change in vivo at 25 mg/kg in [4] (oral, mouse, 5 minutes) is -23%; in data set [6] (po), -20%. Also, the change in vivo at 50 mg/kg was -34% in data set [4] (oral, mouse, 5 minutes); -13% in data set [9] (po); 0% in [6] (po). Further, the change in vivo at 100 mg/kg in data set [4] (setting [11]) was -47%; in data set [9] (po) it was -39%; in [6] (po), -22%. The change in vivo at 200 mg/kg in [4] (setting [12]) is -46%; in [9] (po), -34%; in data set [6] (po), -17%. For the same compound, the “% of increase” value in data set [5] (1.5 mg/kg) is “+89%”; in data set [5] (3 mg/kg), “+73%”; in data set [5] (5 mg/kg), “+56%”; in [5] (10 mg/kg), “+61%”. For the same compound, the “Test of despair: % of antagonism” value in [7] (100 mg/kg) is listed as -20%; in [7] (200 mg/kg) it was -18%. In data set [8] (200 mg/kg), the “% of inhibition … by pilocarpine” value is -23%.
In the case of `C(=Nc1cc2c(cc1CCN1CCCCC1)OCO2)c1cccnc1` [COR 01 202], in data set [1] (750 mg/kg), the mortality at 336 h is 30%. In addition, the “% of mortality” value in [2] (500 mg/kg) was 10%; in [2] (1000 mg/kg) it was 60%. The “% of analgesic activity” value in [3] (100 mg/kg, male Swiss mouse, PBQ) is 0%; in data set [3] (200 mg/kg, male Swiss mouse, PBQ), 33%. The inhibition in vivo at 50 mg/kg in data set [3] (50 mg/kg, male Swiss mouse, PBQ, read-out: % of analgesic activity) was 2%. The “% of activity vis-a-vis the stereotype induced by apomorphine” value was -35% in [10] (25 mg/kg), -32% in data set [10] (50 mg/kg), -29% in [10] (75 mg/kg) and -20% in data set [10] (200 mg/kg). The “antagonism vis-a-vis the stereotype with apomorphine” value in data set [10] (in words) is on record as “manifest an antagonism”. For the same compound, the “% of increase” value in data set [5] (25 mg/kg) is “+48%”; in data set [5] (50 mg/kg) it was “+96%”. Further, the change in vivo at 25 mg/kg in [6] (25 mg/kg, oral) was 0%. Further, the change in vivo at 50 mg/kg in data set [6] (50 mg/kg, oral) was -67%. In addition, the change in vivo at 75 mg/kg in data set [6] (oral) is -44%. Besides, the “Test of despair: % of antagonism” value is listed as -49% in data set [7] (50 mg/kg) and -67% in data set [7] (100 mg/kg).
As for `CN(C)CCc1cc2c(cc1N=Cc1ccc[n+]([O-])c1)OCO2` [COR 01 203], the mortality at 336 h was found to be 0% in [1] (1000 mg/kg), 10% in data set [1] (1500 mg/kg) and 40% in data set [1] (2000 mg/kg). For the same compound, the inhibition in vivo at 50 mg/kg in data set [3] (setting [13]) amounted to 0%. Further, the inhibition in vivo at 100 mg/kg in [3] was determined as 36%. The inhibition in vivo at 200 mg/kg in data set [3] was 47%. Besides, the change in vivo at 100 mg/kg is -33% in [9] (po) and -50% in data set [6] (po). For the same compound, the change in vivo at 200 mg/kg in data set [9] (po) was -27%; in [6] (po) it was -20%. Moreover, the change in vivo at 50 mg/kg in data set [6] (po) was -70%. Also, the “% of inhibition … by pilocarpine” value is recorded as -32% in [8] (50 mg/kg) and -30% in data set [8] (200 mg/kg).
